Reference: patent US20020031816A1, “METHOD OF INHIBITION OF HUMAN GLYCOGEN PHOSPHORYLASE” (priority 1998, published 2002)

| melting point | Compound |
| --- | --- |
| 180 °C (dec.) | CCN1C(=O)C(C(=O)Nc2cccc(C(=O)NC3CCCCC3)c2)c2cc(C(C)=O)ccc21 (stereo not drawn) [Preparation 2, 5-Acetyl-1-ethyl-2-oxo-2,3-dihydro-1H-indole-3-carboxylic acid (3-cyclohexylcarbamoyl-phenyl)-amide] |
| 119 to 121 °C | CCN1C(=O)C(C(=O)Nc2cccc(C(=O)Nc3ccc(Cl)cc3)c2)c2cc(C(C)=O)ccc21 (stereo not drawn) [Preparation 3, 5-Acetyl-1-ethyl-2-oxo-2,3-dihydro-1H-indole-3-carboxylic acid [3-(4-chloro-phenylcarbamoyl)-phenyl]-amide] |
| 117 to 120 °C | CCN1C(=O)C(C(=O)Nc2cccc(C(=O)Nc3ccc(Br)cc3)c2)c2cc(C(C)=O)ccc21 (stereo not drawn) [Preparation 8, 5-Acetyl-1-ethyl-2-oxo-2,3-dihydro-1H-indole-3-carboxylic acid [3-(4-bromo-phenylcarbamoyl)-phenyl]-amide] |
| 205 to 210 °C | CCN1C(=O)C(C(=O)Nc2cccc(C(=O)Nc3ccc(I)cc3)c2)c2cc(C(C)=O)ccc21 (stereo not drawn) [Preparation 9, 5-Acetyl-1-ethyl-2-oxo-2,3-dihydro-1H-indole-3-carboxylic acid [3-(4-iodo-phenylcarbamoyl)-phenyl]-amide] |
| 129 to 135 °C | CCN1C(=O)C(C(=O)Nc2cccc(C(=O)Nc3ccccc3)c2)c2cc(C(=O)c3ccccc3)ccc21 (stereo not drawn) [Preparation 10, 5-Benzoyl-1-ethyl-2-oxo-2,3-dihydro-1H-indole-3-carboxylic acid (3-phenylcarbamoyl-phenyl)-amide] |
| 178 to 179 °C | CC(=O)c1ccc2c(c1)C(C(=O)Nc1cccc(C(=O)Nc3ccccc3)c1)C(=O)N2C (stereo not drawn) [Preparation 12, 5-Acetyl-1-methyl-2-oxo-2,3-dihydro-1H-indole-3-carboxylic acid (3-phenylcarbamoyl-phenyl)-amide] |
